Measured values: US10570122B2, “Compounds with anti-tumoral activity” (AB Science, priority 2015, dated 2020)

Experiments:
REC1 = experiment: CellTiter-Blue cell-based survival/proliferation assay, REC1; conditions: Homo sapiens, Lymphoma cell line REC1, 48 h, read-out: Anti-tumoral activity (measured IC50) REC1
Outline: (§1)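 Compounds, diluted tenfold serially over 0–10 μM, are applied to 1·10^4 seeded cells per well for 48 h at 37 °C. Resorufin formed during a further 4 h with CellTiter-Blue is detected by fluorescence emission at 590 nm.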

AGS = experiment: CellTiter-Blue cell-based survival/proliferation assay, AGS; conditions: Homo sapiens; AGS stomach tumor cell line, 48 h
Outline: as §1

U2OS = experiment: CellTiter-Blue cell-based survival/proliferation assay, U2OS; conditions: Homo sapiens; U2OS osteosarcoma cell line, 48 h
Experimental: (§2) Cell-Based Proliferation Screening of Compounds
(§3) CellTiter-Blue cell-based survival/proliferation assay (Promega G8080) was performed on tumor cell lines. A total of 1·10^4 cells/well/50 μl were seeded in a 96-wells plate. Treatment was initiated by addition of a 2× drug solution of 1/10 serial dilutions ranging from 0 to 10 μM. Cells were grown for 48 h at 37° C. and then incubated with 10 μl/well of Promega CellTiter-Bleue reagent for 4 h at 37° C. The amount of resorufin dye formed was quantified by its fluorescence emission at 590 nm using a scanning multiwell spectrophotometer (OPTIMA, BMG labtech, France). A blank well without cells was used as a background control for the spectrophotometer.

MELWO = experiment: CellTiter-Blue cell-based survival/proliferation assay, MELWO; conditions: Homo sapiens; MEL_WO melanoma cell line, 48 h
Experimental: as §2, §3

HL60 = experiment: CellTiter-Blue cell-based survival/proliferation assay, HL60; conditions: Homo sapiens, HL-60, Leukemia cell line HL60, 48 h, read-out: Anti-tumoral activity (measured IC50) HL60
Outline: as §1

HEP2 = experiment: CellTiter-Blue cell-based survival/proliferation assay, HEP2; conditions: Homo sapiens, HEp-2; HEP2 head & neck tumor cell line, 48 h
Outline: as §1

A498 = experiment: CellTiter-Blue cell-based survival/proliferation assay, A498; conditions: Homo sapiens; A498 kidney tumor cell line, 48 h
Outline: as §1

DLD1 = experiment: CellTiter-Blue cell-based survival/proliferation assay, DLD1; conditions: Homo sapiens, DLD-1; DLD_1 colorectal tumor cell line, 48 h
Outline: as §1

ACHN = experiment: CellTiter-Blue cell-based survival/proliferation assay, ACHN; conditions: Homo sapiens; ACHN kidney tumor cell line, 48 h
Outline: as §1

CALU6 = experiment: CellTiter-Blue cell-based survival/proliferation assay, CALU6; conditions: Homo sapiens, Calu-6; CALU6 lung tumor cell line, 48 h
Outline: as §1

BT20 = experiment: CellTiter-Blue cell-based survival/proliferation assay, BT20; conditions: Homo sapiens, BT-20; BT20 breast tumor cell line, 48 h
Outline: as §1

MDAMB231 = experiment: CellTiter-Blue cell-based survival/proliferation assay, MDAMB231; conditions: Homo sapiens, MDA-MB-231; MDAMB231 breast tumor cell line, 48 h
Outline: as §1

HCT116 = experiment: CellTiter-Blue cell-based survival/proliferation assay, HCT116; conditions: Homo sapiens, HCT-116; HCT116 colorectal tumor cell line, 48 h
Outline: as §1

OPM2 = experiment: CellTiter-Blue cell-based survival/proliferation assay, OPM2; conditions: Homo sapiens, OPM-2, Myeloma cell line OPM2, 48 h, read-out: Anti-tumoral activity (measured IC50) OPM2
Outline: as §1

CLS354 = experiment: CellTiter-Blue cell-based survival/proliferation assay, CLS354; conditions: Homo sapiens, CLS-354; CLS354_4 head & neck tumor cell line, 48 h
Outline: as §1

PC3 = experiment: CellTiter-Blue cell-based survival/proliferation assay, PC3; conditions: Homo sapiens, PC-3; PC3 prostate tumor cell line, 48 h
Outline: as §1

BXPC3 = experiment: CellTiter-Blue cell-based survival/proliferation assay, BXPC3; conditions: Homo sapiens, BXPC-3; BXPC3 pancreas tumor cell line, 48 h
Outline: as §1

H1299 = experiment: CellTiter-Blue cell-based survival/proliferation assay, H1299; conditions: Homo sapiens, NCI-H1299; H1299 lung tumor cell line, 48 h
Outline: as §1

PANC1 = experiment: CellTiter-Blue cell-based survival/proliferation assay, PANC1; conditions: Homo sapiens, PANC-1; PANC_1 pancreas tumor cell line, 48 h
Outline: as §1

DU145 = experiment: CellTiter-Blue cell-based survival/proliferation assay, DU145; conditions: Homo sapiens, DU-145; DU145 prostate tumor cell line, 48 h
Outline: as §1

A4513 = experiment: CellTiter-Blue cell-based survival/proliferation assay, A4513; conditions: Homo sapiens; A4513 Ewing cell line, 48 h
Experimental: as §2, §3

HEPG2 = experiment: CellTiter-Blue cell-based survival/proliferation assay, HEPG2; conditions: Homo sapiens; HEPG2 liver tumor cell line, 48 h
Outline: as §1

HGC27 = experiment: CellTiter-Blue cell-based survival/proliferation assay, HGC27; conditions: Homo sapiens, HGC-27; HGC27 stomach tumor cell line, 48 h
Outline: as §1

PLCPRF5 = experiment: CellTiter-Blue cell-based survival/proliferation assay, PLCPRF5; conditions: Homo sapiens, PLC-PRF-5; PLC_PRF5 liver tumor cell line, 48 h
Outline: as §1

A375 = experiment: CellTiter-Blue cell-based survival/proliferation assay, A375; conditions: Homo sapiens, A-375; A375 melanoma cell line, 48 h
Experimental: as §2, §3

HUT78 = experiment: CellTiter-Blue cell-based survival/proliferation assay, HUT78; conditions: Homo sapiens, Lymphoma cell line HUT78, 48 h, read-out: Anti-tumoral activity (measured IC50) HUT78
Outline: as §1

KARPAS299 = experiment: CellTiter-Blue cell-based survival/proliferation assay, KARPAS299; conditions: Homo sapiens, KARPAS-299, Lymphoma cell line KARPAS299, 48 h, read-out: Anti-tumoral activity (measured IC50) KARPAS299
Outline: as §1

U87MG = experiment: CellTiter-Blue cell-based survival/proliferation assay, U87MG; conditions: Homo sapiens, U-87 MG; U87_MG glioblastoma cell line, 48 h
Experimental: as §2, §3

SW579 = experiment: CellTiter-Blue cell-based survival/proliferation assay, SW579; conditions: Homo sapiens; SW579 head & neck tumor cell line, 48 h
Outline: as §1

TOV112D = experiment: CellTiter-Blue cell-based survival/proliferation assay, TOV112D; conditions: Homo sapiens; TOV112D ovary tumor cell line, 48 h
Outline: as §1

MESSA = experiment: CellTiter-Blue cell-based survival/proliferation assay, MESSA; conditions: Homo sapiens, MES-SA; MESSA ovary tumor cell line, 48 h
Outline: as §1

A549 = experiment: CellTiter-Blue cell-based survival/proliferation assay, A549; conditions: Homo sapiens; A549 lung tumor cell line, 48 h
Outline: as §1

U118 = experiment: CellTiter-Blue cell-based survival/proliferation assay, U118; conditions: Homo sapiens; U118 glioblastoma cell line, 48 h
Experimental: as §2, §3

| SMILES | IC50 (REC1) [µM] | IC50 (AGS) [µM] | IC50 (U2OS) [µM] | IC50 (MELWO) [µM] | IC50 (HL60) [µM] | IC50 (HEP2) [µM] | IC50 (A498) [µM] | IC50 (DLD1) [µM] | IC50 (ACHN) [µM] | IC50 (CALU6) [µM] | IC50 (BT20) [µM] | IC50 (MDAMB231) [µM] | IC50 (HCT116) [µM] | IC50 (OPM2) [µM] | IC50 (CLS354) [µM] | IC50 (PC3) [µM] | IC50 (BXPC3) [µM] | IC50 (H1299) [µM] | IC50 (PANC1) [µM] | IC50 (DU145) [µM] | further results |
| --- | --- | --- | --- | --- | --- | --- | --- | --- | --- | --- | --- | --- | --- | --- | --- | --- | --- | --- | --- | --- | --- |
| CCOCc1ccc(C)c(Nc2ncc(-c3ccc(-n4cccn4)nc3)o2)c1 [Example 007, (5-Ethoxymethyl-2-methyl-phenyl)-[5-(6-pyrazol-1-yl-pyridin-3-yl)-oxazol-2-yl]-amine] | ≤ 0.1 | ≤ 0.1 | > 1 | > 1 | 0.1 to 0.5 | 0.1 to 0.5 | > 1 | 0.5 to 1 | 0.1 to 0.5 | > 1 | > 1 | > 1 | > 1 | 0.1 to 0.5 | ≤ 0.1 | 0.1 to 0.5 | > 1 | > 1 | > 1 | > 1 | IC50 (A4513): 0.1 to 0.5 µM; IC50 (HEPG2): > 1 µM; IC50 (HGC27): 0.1 to 0.5 µM; IC50 (PLCPRF5): > 1 µM; IC50 (A375): ≤ 0.1 µM; IC50 (HUT78): ≤ 0.1 µM; IC50 (KARPAS299): ≤ 0.1 µM; IC50 (U87MG): > 1 µM; IC50 (SW579): > 1 µM; IC50 (TOV112D): ≤ 0.1 µM; IC50 (MESSA): > 1 µM; IC50 (A549): > 1 µM; IC50 (U118): > 1 µM |
| CCOCc1ccc(C)c(Nc2nc(-c3ccc(N4CCNC4=O)cc3)ns2)c1 [Example 010, 1-{4-[5-(5-Ethoxymethyl-(2-methyl-phenylamino))-[1,2,4]thiadiazol-3-yl]-phenyl}-imidazolidin-2-one] | ≤ 0.1 | > 1 | > 1 | ≤ 0.1 | ≤ 0.1 | ≤ 0.1 | > 1 | > 1 | ≤ 0.1 | 0.5 to 1 | > 1 | > 1 | ≤ 0.1 | ≤ 0.1 | ≤ 0.1 | ≤ 0.1 | > 1 | 0.1 to 0.5 | > 1 | > 1 | IC50 (A4513): > 1 µM; IC50 (HEPG2): > 1 µM; IC50 (HGC27): ≤ 0.1 µM; IC50 (PLCPRF5): > 1 µM; IC50 (A375): ≤ 0.1 µM; IC50 (HUT78): ≤ 0.1 µM; IC50 (KARPAS299): ≤ 0.1 µM; IC50 (U87MG): > 1 µM; IC50 (SW579): ≤ 0.1 µM; IC50 (TOV112D): ≤ 0.1 µM; IC50 (MESSA): > 1 µM; IC50 (A549): > 1 µM; IC50 (U118): > 1 µM |
| COc1ccc(C)c(Nc2ncc(-c3ccc(-n4cccn4)cc3)s2)c1 [Example 011, (5-Methoxy-2-methyl-phenyl)-[5-(4-pyrazol-1-yl-phenyl)-thiazol-2-yl]-amine] | > 1 | > 1 | > 1 | > 1 | > 1 | > 1 | > 1 | > 1 | > 1 | > 1 | > 1 | > 1 | > 1 | > 1 | > 1 | > 1 | > 1 | > 1 | > 1 | > 1 | IC50 (A4513): > 1 µM; IC50 (HEPG2): > 1 µM; IC50 (HGC27): > 1 µM; IC50 (PLCPRF5): > 1 µM; IC50 (A375): > 1 µM; IC50 (HUT78): > 1 µM; IC50 (KARPAS299): > 1 µM; IC50 (U87MG): > 1 µM; IC50 (SW579): > 1 µM; IC50 (TOV112D): > 1 µM; IC50 (MESSA): > 1 µM; IC50 (A549): > 1 µM; IC50 (U118): > 1 µM |
| COc1ccc(C)c(Nc2ncc(-c3ccc(N4CCNC4=O)cc3)s2)c1 [Example 013, 1-{4-[2-(5-Methoxy-2-methyl-phenylamino)-thiazol-5-yl]-phenyl}-imidazolidin-2-one] | 0.5 to 1 | > 1 | > 1 | > 1 | 0.1 to 0.5 | > 1 | > 1 | > 1 | > 1 | > 1 | > 1 | > 1 | > 1 | 0.1 to 0.5 | > 1 | 0.5 to 1 | > 1 | > 1 | > 1 | > 1 | IC50 (A4513): 0.1 to 0.5 µM; IC50 (HEPG2): > 1 µM; IC50 (HGC27): > 1 µM; IC50 (PLCPRF5): > 1 µM; IC50 (A375): > 1 µM; IC50 (HUT78): 0.5 to 1 µM; IC50 (KARPAS299): 0.5 to 1 µM; IC50 (U87MG): > 1 µM; IC50 (SW579): > 1 µM; IC50 (TOV112D): > 1 µM; IC50 (MESSA): > 1 µM; IC50 (A549): > 1 µM; IC50 (U118): > 1 µM |
